Assay results reported in ChEMBL document CHEMBL1135004, “Natural and synthetic geiparvarins are strong and selective MAO-B inhibitors. Synthesis and SAR studies” (Bioorg Med Chem Lett, 2002).

How the values were obtained:
[1] = target: T1, Monoamine oxidase A (Homo sapiens, UniProt P21397); test: Inhibitory potency against Monoamine oxidase A at 10 uM
T1 sequence (P21397 whole entry): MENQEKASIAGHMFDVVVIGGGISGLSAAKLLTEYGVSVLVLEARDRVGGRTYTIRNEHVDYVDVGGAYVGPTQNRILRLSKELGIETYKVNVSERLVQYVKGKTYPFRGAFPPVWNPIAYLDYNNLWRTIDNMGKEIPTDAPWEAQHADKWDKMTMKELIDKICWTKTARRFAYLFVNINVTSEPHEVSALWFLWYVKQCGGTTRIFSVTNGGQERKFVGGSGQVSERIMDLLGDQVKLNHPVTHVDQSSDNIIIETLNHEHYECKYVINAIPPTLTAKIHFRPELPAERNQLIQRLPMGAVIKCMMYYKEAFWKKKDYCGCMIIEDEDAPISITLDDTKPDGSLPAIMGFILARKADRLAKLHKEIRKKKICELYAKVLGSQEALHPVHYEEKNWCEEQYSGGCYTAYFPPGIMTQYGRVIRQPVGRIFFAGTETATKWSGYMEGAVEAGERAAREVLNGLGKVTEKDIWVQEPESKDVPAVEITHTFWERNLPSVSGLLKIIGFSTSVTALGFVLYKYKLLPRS

[2] = target: T2, Amine oxidase [flavin-containing] B (Homo sapiens, UniProt P27338); test: Inhibitory potency against Monoamine oxidase B
T2 sequence (P27338 whole entry): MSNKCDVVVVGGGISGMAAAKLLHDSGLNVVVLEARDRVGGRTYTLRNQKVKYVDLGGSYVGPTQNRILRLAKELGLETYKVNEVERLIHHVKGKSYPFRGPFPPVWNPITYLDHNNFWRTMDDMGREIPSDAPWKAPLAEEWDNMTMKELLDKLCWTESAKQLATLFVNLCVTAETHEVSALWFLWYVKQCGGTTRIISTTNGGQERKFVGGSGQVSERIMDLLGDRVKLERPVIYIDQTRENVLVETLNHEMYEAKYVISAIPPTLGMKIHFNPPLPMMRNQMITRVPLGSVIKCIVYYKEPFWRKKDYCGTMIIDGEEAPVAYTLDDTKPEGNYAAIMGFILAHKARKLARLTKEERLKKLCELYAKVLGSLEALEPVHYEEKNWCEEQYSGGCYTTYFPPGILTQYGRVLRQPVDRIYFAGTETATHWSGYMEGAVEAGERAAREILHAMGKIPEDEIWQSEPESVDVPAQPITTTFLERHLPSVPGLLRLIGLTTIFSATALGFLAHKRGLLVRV

[3] = target: T3, Amine oxidase [flavin-containing] A (Homo sapiens, UniProt P21397); test: Inhibitory potency against Monoamine oxidase A
T3 sequence (P21397 whole entry): T1 sequence (P21397 whole entry)

[4] = target: T1, Monoamine oxidase A; test: Inhibitory potency against Monoamine oxidase A at 3 uM

SMILES	inhibition at 10 µM [1] [%]	IC50 [2] [nM]	IC50 [3] [nM]	inhibition at 3 µM [4] [%]
CC(=O)/C=C/C=C/COc1ccc2ccc(=O)oc2c1	26	1700	–	–
Cc1c(C)c2ccc(OC/C=C/C3=CC(=O)C(C)(C)O3)cc2oc1=O	–	631	11200	–
C/C(=C\COc1ccc2c(C)c(C)c(=O)oc2c1)C1=CC(=O)C(C)(C)O1	37	129	–	–
Cc1cc(=O)oc2cc(OC/C=C/C3=CC(=O)C(C)(C)O3)ccc12	27	170	–	–
Cc1cc2ccc(OC/C=C/C3=CC(=O)C(C)(C)O3)cc2oc1=O	–	589	15100	–
CC1(c2ccccc2)OC(/C=C/COc2ccc3ccc(=O)oc3c2)=CC1=O (stereo unspecified)	–	1510	–	0
CC1(C)OC(/C=C/COc2ccc3ccc(=O)oc3c2)=CC1=O	–	28.2	24000	–
C/C(=C\COc1ccc2ccc(=O)oc2c1)C1=CC(=O)C(C)(C)O1 [GEIPARVARIN]	–	145	26900	–
